Source: US20090221523A1 (priority 2005, published 2009)
≈ marks a conversion by molar mass, not a printed value. Where “and” joins values, the source holds several entries; their conditions need not be identical. Equal values may be shown once. Read-outs that look alike come from different tables or passages of the source. Marks after values point to notes of the source that are not given here.

Assays:
[1] = tested on: CV strain TK:GFP lacZ (TK−); test: microbe, parasite or virus in culture; format: cell-based; conditions: Cowpox virus, Vero, read-out: CV TK:GFP lacZ EC50 (TK−)
[2] = in vitro; conditions: human
[3] = tested on: CV strain delta crmA (TK+); test: microbe, parasite or virus in culture; format: cell-based; conditions: Cowpox virus, Vero, read-out: CV delta crmA EC50 (TK+)
[4] = tested on: HSV-1 TK− strain DM2.1; test: microbe, parasite or virus in culture; format: cell-based, herpes simplex virus; conditions: Human alphaherpesvirus 1, HFF
[5] = tested on: HSV-1 strain F; test: microbe, parasite or virus in culture; format: cell-based, herpes simplex virus; conditions: Human alphaherpesvirus 1, HFF
[6] = tested on: Cc1cn([C@H]2C[C@H](O)[C@@H](CO)O2)c(=O)[nH]c1=O; test: purified protein, by the assay type
[7] = tested on: TK:GFP lacZ (TK−) CV strain; test: microbe, parasite or virus in culture; format: cell-based; conditions: Cowpox virus, HFF, read-out: EC50 CV (TK:gpf lacZ)
[8] = tested on: ΔcrmA (TK+) CV strain; test: microbe, parasite or virus in culture; format: cell-based; conditions: Cowpox virus, HFF, read-out: EC50 CV (Δcrm lacZ) TK+
[9] = tested on: HSV-1 strain E377; set-up: species or system BALB/c mice; conditions: mouse, in vivo
[10] = tested on: vaccinia (HID strain); set-up: species or system mice; Mean Lung Virus Titer: unit not given here; conditions: mouse, in vivo
[11] = tested on: VV strain WR; set-up: species or system BALB/c mice; conditions: mouse, in vivo, ip
[12] = tested on: human herpesvirus 6; format: cell-based; conditions: betaherpesvirus without TK activity
[13] = tested on: human cytomegalovirus; format: cell-based
[14] = tested on: cowpox Brighton Strain; set-up: species or system BALB/c mice; conditions: mouse, in vivo; for MDD, mean day of death / Mortality % / Mortality No. dead/total no.: ip
[15] = tested on: vaccinia virus (Copenhagen Strain); test: microbe, parasite or virus in culture; format: cell-based; conditions: Orthopoxvirus vaccinia, HFF, read-out: Vaccinia (Copenhagen) EC50
[16] = tested on: HFF cells; test: cells; format: cell-based; conditions: Homo sapiens, 72 h, read-out: IC50, 50% inhibition of cell proliferation
[17] = tested on: vaccinia WR strain; set-up: species or system BALB/c mice; conditions: mouse, in vivo
[18] = tested on: WR strain of VV; test: microbe, parasite or virus in culture; format: cell-based; conditions: Orthopoxvirus vaccinia, HFF, 24 h, read-out: EC50 for inhibiting VV DNA synthesis
[19] = tested on: Human herpesvirus 8; conditions: Zhu, et al. 2005; cited from earlier work
[20] = tested on: HFF cells; conditions: human
[21] = tested on: cowpox virus (Brighton strain); test: microbe, parasite or virus in culture; format: cell-based; conditions: HFF, read-out: Cowpox (Brighton) EC50
[22] = tested on: cowpox virus (Brighton strain); test: microbe, parasite or virus in culture; format: cell-based; conditions: HFF, read-out: CV (Brighton) EC50
[23] = tested on: Epstein-Barr virus; test: microbe, parasite or virus in culture; format: cell-based; conditions: human gammaherpesvirus 4, read-out: EC50, inhibition of Epstein-Barr virus replication
[24] = tested on: vaccinia (WR strain); set-up: species or system mice; Mean Lung Virus Titer: unit not given here; conditions: mouse, in vivo
[25] = tested on: vaccinia IHD strain; set-up: species or system BALB/c mice; conditions: mouse, in vivo
[26] = tested on: cowpox Brighton Strain; set-up: species or system BALB/c mice; conditions: mouse, in vivo
[27] = mouse, in vivo
[28] = tested on: vaccinia virus (Copenhagen Strain); test: microbe, parasite or virus in culture; format: cell-based; conditions: for EC50: Orthopoxvirus vaccinia, HFF, read-out: VV (Copenhagen) EC50
[29] = target: purified VV TK (Vaccinia virus, UniProt P68564)
[30] = read-out: HSV-1 DM2.1 EC50 (TK−)
[31] = read-out: EC50 HSV-1 (DM2.1) TK−

Compound: O=c1[nH]c(=O)n([C@@H]2O[C@H](CO)[C@@H](O)[C@@H]2O)cc1/C=C/Br [BVAU, sorivudine]
- EC50 [1]: > 30 mg/L
- CC50 [2]: > 100 mg/L
- EC50 [3]: > 30 mg/L
- EC50 [4, 30]: > 100 mg/L
- EC50 ([5]; read-out: HSV-1 F EC50 (TK+)): 0.05 ± 0.02 mg/L (≈ 0.143 µM)

Compound: purified VV TK (Vaccinia virus Copenhagen)
- Km [6]: 49 ± 7.6 µM
- Vmax [6]: 289 µM/min/mg

Compound: O=c1[nH]c(=O)n([C@H]2C[C@H](O)[C@@H](CO)O2)cc1I [IDU, idoxuridine]
- EC50 [1]: 16 ± 9.3 mg/L (≈ 45.2 µM)
- CC50 [2]: > 100 mg/L
- EC50 [3]: 2.2 ± 0.87 mg/L (≈ 6.21 µM)
- EC50 [4, 31]: 54 ± 8.1 mg/L (≈ 152 µM)
- EC50 [4, 30]: 54 ± 8.1 mg/L (≈ 152 µM)
- EC50 [7]: 22 ± 9.3 mg/L (≈ 62.1 µM)
- EC50 ([5]; read-out: EC50 HSV-1 (F) TK+): 2.1 ± 0.1 mg/L (≈ 5.93 µM)
- EC50 ([5]; read-out: HSV-1 F EC50 (TK+)): 2.1 ± 0.1 mg/L (≈ 5.93 µM)
- EC50 [8]: 0.4 ± 0.18 mg/L (≈ 1.13 µM)

Compound: Nc1nc2c(ncn2COCCO)c(=O)[nH]1 [ACV, acyclovir]
- EC50 [1]: > 30 mg/L
- Mortality % [9]: 0%
- Mortality No. dead/total no. [9]: 0/15
- CC50 [2]: > 100 mg/L
- EC50 [3]: > 30 mg/L
- EC50 [4, 31]: > 100 mg/L
- EC50 [4, 30]: > 100 mg/L
- EC50 ([5]; read-out: EC50 HSV-1 (F) TK+): 0.3 mg/L (≈ 1.33 µM)
- EC50 ([5]; read-out: HSV-1 F EC50 (TK+)): 0.35 ± 0.2 mg/L (≈ 1.55 µM)

Compound: O=c1[nH]c(=O)n([C@H]2C[C@H](O)[C@@H](CO)O2)cc1/C=C/Br [BVDU, brivudin]
- EC50 [1]: > 30 mg/L
- CC50 [2]: > 100 mg/L
- EC50 [3]: > 30 mg/L
- EC50 [4, 30]: 100 mg/L (≈ 300 µM)
- EC50 ([5]; read-out: HSV-1 F EC50 (TK+)): 0.09 mg/L (≈ 0.27 µM)

Compound: Cc1cn([C@H]2C[C@H](O)[C@]3(CO)C[C@H]23)c(=O)[nH]c1=O [N-MCT, North-methanocarbathymidine]
- MDD, mean day of death [10]: >21*** day
- Mean Lung Virus Titer [10]: 7.1 ± 0.3 and 8.1 ± 0.1 and 8.3 ± 0.1
- Survivors/Total [10]: 10/10***
- MDD, mean day of death ([11]; 5.6 mg/kg): 8.2 days
- Mortality % ([11]; 5.6 mg/kg): 80%
- Mortality No. dead/total no. ([11]; 5.6 mg/kg): 12/15
- MDD, mean day of death ([11]; 16.7 mg/kg): 7.5 days
- Mortality % ([11]; 16.7 mg/kg): 13%
- Mortality No. dead/total no. ([11]; 16.7 mg/kg): 2/15
- Mortality % ([11]; 50 mg/kg): 0%
- Mortality No. dead/total no. ([11]; 50 mg/kg): 0/15
- Activity against human herpesvirus 6 [12]: inactive
- MDD, mean day of death [9]: 20 days
- Mortality % [9]: 0% and 7%
- Mortality No. dead/total no. [9]: 0/15 and 1/15
- Activity against human cytomegalovirus [13]: inactive
- Mean Day of Death [14]: 14.0 days and 7.5 days and 13.3 days
- Mortality Number [14]: 6/15 and 2/15 and 3/15
- MDD, mean day of death ([14]; 5.6 mg/kg): 14.0 days
- Mortality % ([14]; 5.6 mg/kg): 40%
- Mortality No. dead/total no. ([14]; 5.6 mg/kg): 6/15
- MDD, mean day of death ([14]; 16.7 mg/kg): 13.3 days
- Mortality % ([14]; 16.7 mg/kg): 20%
- Mortality No. dead/total no. ([14]; 16.7 mg/kg): 3/15
- MDD, mean day of death ([14]; 50 mg/kg): 7.5 days
- Mortality % ([14]; 50 mg/kg): 13%
- Mortality No. dead/total no. ([14]; 50 mg/kg): 2/15
- EC50 [15]: 0.73 mg/L (≈ 2.89 µM)
- IC50 [16]: 29 ± 5.4 mg/L (≈ 115 µM)
- CC50 [2]: > 100 mg/L
- Number of Survivors [17]: 0/10
- EC50 [18]: 1 mg/L (≈ 3.96 µM)
- Sensitivity of human herpesvirus 8 to the drug [19]: sensitive
- CC50 [20]: >100 ± 0 mg/L
- EC50 [4, 31]: 6.3 ± 3.9 mg/L (≈ 25 µM)
- EC50 [21]: 0.31 mg/L (≈ 1.23 µM)
- EC50 [22]: 1.5 ± 1.2 mg/L (≈ 5.95 µM)
- EC50 [23]: 0.45 mg/L (≈ 1.78 µM)
- MDD (mean day of death ± SD of mice that died prior to day 21) [24]: 8.3 ± 0.6 days and 11.2 ± 4.7 days
- Mean Lung Virus Titer [24]: 7.9 ± 0.2 and 8.2 ± 0.1 and 8.3 ± 0.2
- Survivors/Total [24]: 7/10*** and 4/10* and 1/10
- EC50 [7]: 28 ± 2.3 mg/L (≈ 111 µM)
- EC50 ([5]; read-out: EC50 HSV-1 (F) TK+): 0.07 ± 0.02 mg/L (≈ 0.277 µM)
- Mean Day of Death [25]: 8.7 days
- Mortality Number [25]: 0/15 and 3/15
- Animals that survived ([25]; 5.6 mg/kg): 80%
- MDD, mean day of death ([25]; ip, 5.6 mg/kg): 8.7 days
- Mortality % ([25]; ip, 5.6 mg/kg): 20%
- Mortality No. dead/total no. ([25]; ip, 5.6 mg/kg): 3/15
- Mortality % ([25]; ip, 16.7 mg/kg): 0%
- Mortality No. dead/total no. ([25]; ip, 16.7 mg/kg): 0/15
- Mortality % ([25]; ip, 50 mg/kg): 0%
- Mortality No. dead/total no. ([25]; ip, 50 mg/kg): 0/15
- EC50 [8]: 2 ± 2 mg/L (≈ 7.93 µM)
- Number of Survivors [26]: 9/10 and 2/10 and 1/10
- Tolerability in mice [27]: well tolerated
- VV (Copenhagen) EC50 [28]: 0.55 ± 0.13 mg/L
- EC50 [28]: 0.6 mg/L (≈ 2.38 µM)

Compound: Nc1ccn(C[C@@H](CO)OCP(=O)(O)O)c(=O)n1 [CDV, cidofovir]
- MDD, mean day of death [10]: >21*** day
- Mean Lung Virus Titer [10]: 4.7 ± 0.6
- Survivors/Total [10]: 10/10***
- EC50 [1]: 3.3 ± 2.3 mg/L (≈ 11.8 µM)
- Mortality % ([11]; 15 mg/kg): 0%
- Mortality No. dead/total no. ([11]; 15 mg/kg): 0/15
- Mortality Number [14]: 0/15
- Mortality Percent [14]: 0%
- Mortality % ([14]; 15 mg/kg): 0%
- Mortality No. dead/total no. ([14]; 15 mg/kg): 0/15
- IC50 [16]: 20 ± 7 mg/L (≈ 71.6 µM)
- CC50 [2]: > 100 mg/L
- Number of Survivors [17]: 10/10
- EC50 [18]: 3 mg/L (≈ 10.7 µM)
- EC50 [3]: 16.1 ± 0.3 mg/L (≈ 57.7 µM)
- CC50 [20]: >100 ± 0 mg/L
- Toxicity CC50 [20]: >100 ± 0 mg/L
- EC50 [4, 31]: 1.5 ± 1.4 mg/L (≈ 5.37 µM)
- EC50 [4, 30]: 1.5 ± 1.4 mg/L (≈ 5.37 µM)
- Vmax [29]: <0.025 µM/min/mg
- EC50 [22]: 4.4 ± 0.6 mg/L (≈ 15.8 µM)
- MDD (mean day of death of mice that died prior to day 21) [24]: 8.0 days
- Mean Lung Virus Titer [24]: 7.0 ± 0.2
- Survivors/Total [24]: 9/10***
- EC50 [7]: 4.2 ± 3.9 mg/L (≈ 15 µM)
- EC50 ([5]; read-out: EC50 HSV-1 (F) TK+): 1.5 ± 1.1 mg/L (≈ 5.37 µM)
- EC50 ([5]; read-out: HSV-1 F EC50 (TK+)): 1.5 ± 1.1 mg/L (≈ 5.37 µM)
- Mortality Number [25]: 0/15
- Mortality Percent [25]: 0%
- Mortality % ([25]; ip, 15 mg/kg): 0%
- Mortality No. dead/total no. ([25]; ip, 15 mg/kg): 0/15
- EC50 [8]: 3.5 ± 3.3 mg/L (≈ 12.5 µM)
- Number of Survivors [26]: 10/10
- VV (Copenhagen) EC50 [28]: 3.3 ± 0.3 mg/L
- EC50 [28]: 3 mg/L (≈ 10.7 µM)
